Experimental findings from patent EP0539587A1, “ANTI[…]” (TSUMURA & CO., priority 1991, dated 1992) are described below.

Counter-ions that a name gives are not always drawn.

By inhibition is commonly meant the change of the read-out against control, counted positive when it falls.

The test system of assay [1] is human immunodeficiency virus. Nature of the assay: Test of anti-AIDS virus activity using clone H9 cells (p24 antigen in culture supernatant). The class given is cell-based. The following applies: Human immunodeficiency virus 1, 120 h, p24 antigen in culture supernatant after 5 days, read-out: Rate of Inhibition (%). How it is done:
1 x 10⁶ clone H9 cells (©T-cells) were placed in individual culture tubes. The serially diluted test drug was then placed in each tube. Roughly 100TCID₅₀ of human immunodeficiency virus (culture supernatant of H9/HTLV-IIIB cells) were then placed in each tube to infect the above-mentioned cells. After incubating the tubes for 1 hour at 37°C in the presence of 5% CO₂, the unabsorbed viral particles and test substance were removed by centrifugal separation (x3000 g, 5 minutes). Moreover, after again centrifugally washing (x3000 g, 5 minutes) the cells with fresh culture liquid, fresh culture liquid was added to each tube to prepare cell suspensions having a concentration of 0.2 x 10⁶ cells per milliliter. 0.5 ml of these cell suspensions were added to each well of a 24 well culture plate containing 0.5 ml of the serially diluted test drug. After incubating this plate for 5 days at 37°C in the presence of 5% CO₂, the amount of p24, which is the human immunodeficiency virus antigen in the culture supernatant, was measured, followed by calculation of the rate of inhibition (%) at the concentrations of the test drug indicated below.

For assay [2], the target named is Human immunodeficiency virus reverse transcriptase (Human immunodeficiency virus type 1 group M subtype B, UniProt P04585). Nature of the assay: Effects on reverse transcriptase activity ([3H]deoxythymidine triphosphate uptake into DNA). The class given is biochemical. The following applies: reverse transcriptase inhibitory activity; 30 minutes at 37°C; polyrA-oligo dT template-primer; read-out: 50% inhibitory concentration (IC50) (converted). How it is done: A reaction mixture having the composition indicated below was prepared.
50 µl of this reaction mixture was allowed to react for 30 minutes at 37°C.
Quantitative determination of the reaction product in the form of DNA was performed by measuring the uptake of the radioactivity of [³H]deoxythymidine triphosphate into DNA using ion exchange filter paper, taking that to represent reverse transcriptase inhibitory activity, and calculating the 50% inhibitory concentration (IC₅₀) of the test compound.

Regarding `O=C(O)/C=C(\C(=O)O[C@H]1[C@@H]2OC(=O)c3cc(O)c(O)c(O)c3-c3c(cc(O)c(O)c3O)C(=O)OC[C@H]1O[C@@H](OC(=O)c1cc(O)c(O)c(O)c1)[C@@H]2O)[C@H]1c2c(cc(O)c(O)c2O)C(=O)O[C@@H]1C(=O)O` [Specific Example 1, repandusinic acid A monopotassium salt], the inhibition at 0.195 µg/mL in assay [1] (0.195 µg/ml) was 27.8%. Moreover, in assay [1] (3.125 µg/ml), the inhibition at 3.125 µg/mL turned out to be 66.7%. Besides, in assay [1] (12.5 µg/ml), the inhibition at 12.5 µg/mL was determined as 94.4%. Also, the IC50 in assay [2] is 103 nM.
